Assay results published in US20030215462A1, “Use of UGT inhibitors to increase bioavailability” (priority 2001, published 2003).
Where “and” joins values, the source holds several entries; their conditions need not be identical. Equal values may be shown once. Values belong to the compound of their own block, whether it stands above or below them.

Legend:
[1] = tested on: UGT enzymes of human liver microsomes; assay: Inhibition of 7-HFC glucuronidation in human liver microsomes; assay type: biochemical; conditions: 7-HFC 50 μM, human liver microsomes 100 μg/ml, 15 min
[2] = tested on: T1, UGT enzymes of human liver microsomes; assay: as above; assay type: biochemical; conditions: 7-HFC 50 μM, human liver microsomes 100 μg/ml, 15 min
T1 construct: percentage of control metabolism, 7-HFC glucuronidation; percentage of control metabolism, 7-HFC glucuronidation

[3] = tested on: UGT enzymes of human liver microsomes; assay: Inhibition of raloxifene glucuronidation (G1, G2) in human liver microsomes; assay type: biochemical; conditions: inhibitor 500 μM, raloxifene 50 μM, human liver microsomes 250 μg/ml, 15 min
Description: Compounds were eluted using a binary solvent gradient system. […] Solvent B was methanol. […] Detection was at 280 nm.

UGT1A1 = target: T2, UGT1A1 (Homo sapiens, UniProt P22309); assay: in vitro
T2 sequence (P22309 26-533): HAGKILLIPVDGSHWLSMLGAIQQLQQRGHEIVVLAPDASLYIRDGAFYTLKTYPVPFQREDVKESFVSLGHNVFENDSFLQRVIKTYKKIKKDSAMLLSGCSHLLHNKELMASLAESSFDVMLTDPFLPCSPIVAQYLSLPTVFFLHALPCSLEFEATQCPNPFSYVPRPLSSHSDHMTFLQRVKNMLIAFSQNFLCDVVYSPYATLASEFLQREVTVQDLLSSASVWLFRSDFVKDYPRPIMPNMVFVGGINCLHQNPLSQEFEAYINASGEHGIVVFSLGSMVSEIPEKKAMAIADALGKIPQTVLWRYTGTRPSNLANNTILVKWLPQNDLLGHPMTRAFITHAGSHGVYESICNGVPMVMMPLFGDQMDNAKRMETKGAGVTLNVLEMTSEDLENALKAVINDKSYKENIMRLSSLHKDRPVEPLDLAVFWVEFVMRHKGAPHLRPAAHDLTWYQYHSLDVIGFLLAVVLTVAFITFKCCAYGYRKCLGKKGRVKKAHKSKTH
Description: (§1) Compounds were eluted using a binary solvent gradient system. Solvent A was water brought to pH 8 with NH4OH. Solvent B was methanol. Solvent flow rate was 1 ml/min and the column temperature was maintained at 50° C. Detection was at 280 nm. […] The system was then returned to the initial conditions and equilibrated for 3 min.

UGT1A3 = target: T3, UGT1A3 (Homo sapiens, UniProt P35503); assay: in vitro
T3 sequence (P35503 29-534): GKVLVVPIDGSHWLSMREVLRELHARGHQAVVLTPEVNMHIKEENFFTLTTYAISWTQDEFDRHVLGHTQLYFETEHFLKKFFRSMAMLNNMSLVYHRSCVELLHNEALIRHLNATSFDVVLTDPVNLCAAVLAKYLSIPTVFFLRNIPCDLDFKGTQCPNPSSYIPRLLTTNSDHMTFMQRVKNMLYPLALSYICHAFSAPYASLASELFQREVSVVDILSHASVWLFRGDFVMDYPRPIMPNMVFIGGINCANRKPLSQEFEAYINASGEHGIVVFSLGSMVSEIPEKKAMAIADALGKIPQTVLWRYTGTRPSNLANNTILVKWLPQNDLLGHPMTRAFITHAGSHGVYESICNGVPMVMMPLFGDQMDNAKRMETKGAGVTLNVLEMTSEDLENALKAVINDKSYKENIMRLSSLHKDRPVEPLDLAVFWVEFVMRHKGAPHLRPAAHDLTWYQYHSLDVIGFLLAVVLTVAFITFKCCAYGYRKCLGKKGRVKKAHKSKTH
Description: as §1

UGT1A9 = target: T4, UGT1A9 (Homo sapiens, UniProt O60656); assay: in vitro; conditions: pH 7.5, % of control metabolism
T4 sequence (O60656 26-530): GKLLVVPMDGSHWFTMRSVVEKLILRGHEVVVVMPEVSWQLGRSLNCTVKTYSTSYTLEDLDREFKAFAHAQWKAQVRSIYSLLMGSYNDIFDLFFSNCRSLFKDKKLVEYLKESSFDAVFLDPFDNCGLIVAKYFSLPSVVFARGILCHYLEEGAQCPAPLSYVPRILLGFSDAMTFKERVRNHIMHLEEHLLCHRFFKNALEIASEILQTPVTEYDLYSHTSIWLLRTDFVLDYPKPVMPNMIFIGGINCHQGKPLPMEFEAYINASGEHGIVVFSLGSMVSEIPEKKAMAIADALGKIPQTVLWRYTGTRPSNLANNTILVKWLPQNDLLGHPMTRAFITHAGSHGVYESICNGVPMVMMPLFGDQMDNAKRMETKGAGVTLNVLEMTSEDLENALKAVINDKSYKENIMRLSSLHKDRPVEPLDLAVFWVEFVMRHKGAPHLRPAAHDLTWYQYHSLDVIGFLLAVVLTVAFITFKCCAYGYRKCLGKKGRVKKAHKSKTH
Description: as §1

UGT1A10 = target: T5, UGT1A10 (Homo sapiens, UniProt Q9HAW8); assay: in vitro; conditions: pH 7.5, % of control metabolism
T5 sequence (Q9HAW8 26-530): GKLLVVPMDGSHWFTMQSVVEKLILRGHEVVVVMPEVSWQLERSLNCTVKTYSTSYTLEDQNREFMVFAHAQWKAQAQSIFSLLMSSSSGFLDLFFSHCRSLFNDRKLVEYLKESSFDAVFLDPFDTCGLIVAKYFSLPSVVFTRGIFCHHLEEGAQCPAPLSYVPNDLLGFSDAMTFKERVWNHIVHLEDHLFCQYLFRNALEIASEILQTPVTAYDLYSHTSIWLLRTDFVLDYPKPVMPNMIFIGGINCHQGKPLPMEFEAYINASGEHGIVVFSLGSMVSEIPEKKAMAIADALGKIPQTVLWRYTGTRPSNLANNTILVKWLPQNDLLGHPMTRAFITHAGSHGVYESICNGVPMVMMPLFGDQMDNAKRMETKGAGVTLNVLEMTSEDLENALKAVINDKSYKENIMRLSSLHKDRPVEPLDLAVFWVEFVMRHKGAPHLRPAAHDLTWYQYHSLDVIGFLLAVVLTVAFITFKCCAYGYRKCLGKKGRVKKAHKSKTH
Description: as §1

[4] = humans; cited from earlier work
[5] = pH 7.5, % of control metabolism, raloxifene G1
[6] = pH 7.5, % of control metabolism, raloxifene G2
[7] = pH 7.5, Inhibition of raloxifene glucuronidation, G1, UGT1A1
[8] = pH 7.5, Inhibition of raloxifene glucuronidation, G2, UGT1A1
[9] = pH 7.5, Inhibition of raloxifene glucuronidation, G1, UGT1A3
[10] = pH 7.5, Inhibition of raloxifene glucuronidation, G2, UGT1A3

% of control metabolism (SD, n = 3), 7-HFC glucuronidation ([1]; inhibitor 1000 μM): 47 (1) % | % of control metabolism (SD, n = 3), 7-HFC glucuronidation ([1]; inhibitor 2000 μM): 35 (1) % | % of control metabolism (SD, n = 3), 7-HFC glucuronidation ([2]; inhibitor 100 μM): 84 (1) % | % of control metabolism (SD, n = 3), 7-HFC glucuronidation ([2]; inhibitor 200 μM): 75 (2) % | % of control metabolism (SD, n = 3), 7-HFC glucuronidation ([2]; inhibitor 500 μM): 64 (0), % and 63 (1) % | % of control metabolism (SD, n = 3), raloxifene glucuronide G1 ([3]; G1): 92 (2) % | % of control metabolism (SD, n = 3), raloxifene glucuronide G2 ([3]; G2): 94 (2) %
SMILES: O=C(O)c1ccccc1O [Salicylic acid]

activity at 15 min, 10 µM (UGT1A1; [5]): 69% | activity at 15 min, 25 µM (UGT1A1; [5]): 46% | activity at 15 min, 50 µM (UGT1A1; [5]): 18% | activity at 15 min, 10 µM (UGT1A1; [6]): 63% | activity at 15 min, 25 µM (UGT1A1; [6]): 33% | activity at 15 min, 50 µM (UGT1A1; [6]): 7% | activity at 15 min, 25 µM (UGT1A1; [7]): 46% | activity at 15 min, 50 µM (UGT1A1; [7]): 18% | activity at 15 min, 25 µM (UGT1A1; [8]): 33% | activity at 15 min, 50 µM (UGT1A1; [8]): 7% | activity at 15 min, 10 µM (UGT1A3; [5]): 81% | activity at 15 min, 25 µM (UGT1A3; [5]): 59% | activity at 15 min, 50 µM (UGT1A3; [5]): 37% | activity at 15 min, 10 µM (UGT1A3; [6]): 56% | activity at 15 min, 25 µM (UGT1A3; [6]): 32% | activity at 15 min, 50 µM (UGT1A3; [6]): 10% | activity at 15 min, 10 µM (UGT1A3; [9]): 81% | activity at 15 min, 25 µM (UGT1A3; [9]): 58% | activity at 15 min, 50 µM (UGT1A3; [9]): 37% | activity at 15 min, 10 µM (UGT1A3; [10]): 56% | activity at 15 min, 25 µM (UGT1A3; [10]): 32% | activity at 15 min, 50 µM (UGT1A3; [10]): 10% | activity at 15 min, 10 µM (UGT1A9; raloxifene G1): 93% | activity at 15 min, 25 µM (UGT1A9; raloxifene G1): 74% | activity at 15 min, 50 µM (UGT1A9; raloxifene G1): 59% | activity at 15 min, 10 µM (UGT1A9; raloxifene G2): 72% | activity at 15 min, 25 µM (UGT1A9; raloxifene G2): 47% | activity at 15 min, 50 µM (UGT1A9; raloxifene G2): 22% | activity at 15 min, 50 µM (UGT1A10; raloxifene G1): 56% | activity at 15 min, 50 µM (UGT1A10; raloxifene G2): 64%
SMILES: COc1cc(C2Oc3cc([C@H]4Oc5cc(O)cc(O)c5C(=O)[C@@H]4O)ccc3OC2CO)ccc1O (stereo partly drawn) [Silibinin]

SMILES: C[C@H](CCc1ccccc1)NC[C@H](O)c1ccc(O)c(C(N)=O)c1 [dilevalol]
absolute oral bioavailability [4]: 11-29%

SMILES: CCc1c2c(nc3ccc(OC(=O)N4CCC(N5CCCCC5)CC4)cc13)-c1cc3c(c(=O)n1C2)COC(=O)[C@]3(O)CC [irinotecan]
absolute oral bioavailability [4]: approximately 13%
